{"source": "patent US20240156996A1", "about": "“BIOCOMPATIBLE RADIONUCLIDE-CONTAINING COMPOSITIONS AND METHODS OF USE” (priority 2022, published 2024)", "experiment": "Encapsulation efficiency of 225Ac within PLGA nanoparticles (γ-ray spectroscopy after washing)", "assay_type": "physicochemical", "conditions": "95:5, 90:10, 75:25 MeOH:DI H2O; FIG. 2", "procedure": "A double-emulsion solvent evaporation method was adapted for the synthesis of PLGA-chelator compound radioisotope complex. The main differences include: (1) using a cup-horn sonicator to generate emulsions and (2) decreasing the reagent volumes to minimize the generation of radiological waste. In a typical synthesis, 100 μL of PLGA dissolved in EtOAc at 40 mg/mL were mixed with 10 μL of 225Ac-chelator compound radioisotope complex in a polar solution (i.e., DI H2O, MeOH, or a mixture of both) within an Eppendorf tube. This mixture was sonicated for 30 s in a cup-horn sonicator to generate a water/oil emulsion. […]\nAs described above, PLGA nanoparticles were synthesized encapsulating free ^225Ac or ^225Ac-BLPhen complex in a methanol/deionized water (MeOH/DI H2O) mixture. […] The encapsulation efficiency of ^225Ac was determined after washing the PLGA nanoparticle suspensions three times with DI H2O. […] The PLGA nanoparticle suspension, the supernatant, and the Eppendorf tube used for sonication were assayed using γ-ray spectroscopy on a high purity germanium detector coupled to a PC-based multichannel analyzer to account for total radioactivity distribution. […] Energy and efficiency calibrations were determined by γ-ray sources traceable to the National Institute of Standards and Technology."}
{"molecule": "[225Ac]", "note": "[^225Ac, actinium-225]", "values": [{"measurement": "effect of increasing the water content in the MeOH/DI H2O mixture on encapsulation efficiency within PLGA nanoparticles", "result": "decreased the encapsulation efficiency"}]}
